Assay results: ChEMBL document CHEMBL5214954, “Identification of PI3K/HDAC Dual-targeted inhibitors with subtype selectivity as potential therapeutic agents against solid Tumors: Building HDAC6 potency in a Quinazolinone-based PI3Kδ-selective template” (Bioorg Med Chem, 2022)

How the values were obtained:
[1] = tested on: HCT-116; experiment: Antiproliferative activity against human HCT-116 cells incubated for 72 hrs by CCK-8 assay; assay type: functional, cell-based; settings: HCT-116, 72 h
[2] = tested on: T47D; experiment: Downregulation of PD-L1 expression in human T47D cells at 10 to 1000 nM measured by western blot analysis; assay type: functional, cell-based; settings: dose 10-1000 nM, DDE = dose-dependent effect
[3] = Half life in male Sprague-Dawley rat at 2 mg/kg, iv measured upto 24 hrs by LC-MS/MS analysis; assay type: ADME, organism-based; settings: in vivo
[4] = Clearance in male Sprague-Dawley rat at 2 mg/kg, iv measured upto 24 hrs by LC-MS/MS analysis; assay type: ADME, organism-based; settings: in vivo
[5] = Apparent volume of distribution in male Sprague-Dawley rat at 2 mg/kg, iv measured upto 24 hrs by LC-MS/MS analysis; assay type: ADME, organism-based; settings: in vivo, read-out: Vz
[6] = target: T1, Protein deacetylase HDAC6 (Homo sapiens, UniProt Q9UBN7)
T1 sequence (Q9UBN7 whole entry): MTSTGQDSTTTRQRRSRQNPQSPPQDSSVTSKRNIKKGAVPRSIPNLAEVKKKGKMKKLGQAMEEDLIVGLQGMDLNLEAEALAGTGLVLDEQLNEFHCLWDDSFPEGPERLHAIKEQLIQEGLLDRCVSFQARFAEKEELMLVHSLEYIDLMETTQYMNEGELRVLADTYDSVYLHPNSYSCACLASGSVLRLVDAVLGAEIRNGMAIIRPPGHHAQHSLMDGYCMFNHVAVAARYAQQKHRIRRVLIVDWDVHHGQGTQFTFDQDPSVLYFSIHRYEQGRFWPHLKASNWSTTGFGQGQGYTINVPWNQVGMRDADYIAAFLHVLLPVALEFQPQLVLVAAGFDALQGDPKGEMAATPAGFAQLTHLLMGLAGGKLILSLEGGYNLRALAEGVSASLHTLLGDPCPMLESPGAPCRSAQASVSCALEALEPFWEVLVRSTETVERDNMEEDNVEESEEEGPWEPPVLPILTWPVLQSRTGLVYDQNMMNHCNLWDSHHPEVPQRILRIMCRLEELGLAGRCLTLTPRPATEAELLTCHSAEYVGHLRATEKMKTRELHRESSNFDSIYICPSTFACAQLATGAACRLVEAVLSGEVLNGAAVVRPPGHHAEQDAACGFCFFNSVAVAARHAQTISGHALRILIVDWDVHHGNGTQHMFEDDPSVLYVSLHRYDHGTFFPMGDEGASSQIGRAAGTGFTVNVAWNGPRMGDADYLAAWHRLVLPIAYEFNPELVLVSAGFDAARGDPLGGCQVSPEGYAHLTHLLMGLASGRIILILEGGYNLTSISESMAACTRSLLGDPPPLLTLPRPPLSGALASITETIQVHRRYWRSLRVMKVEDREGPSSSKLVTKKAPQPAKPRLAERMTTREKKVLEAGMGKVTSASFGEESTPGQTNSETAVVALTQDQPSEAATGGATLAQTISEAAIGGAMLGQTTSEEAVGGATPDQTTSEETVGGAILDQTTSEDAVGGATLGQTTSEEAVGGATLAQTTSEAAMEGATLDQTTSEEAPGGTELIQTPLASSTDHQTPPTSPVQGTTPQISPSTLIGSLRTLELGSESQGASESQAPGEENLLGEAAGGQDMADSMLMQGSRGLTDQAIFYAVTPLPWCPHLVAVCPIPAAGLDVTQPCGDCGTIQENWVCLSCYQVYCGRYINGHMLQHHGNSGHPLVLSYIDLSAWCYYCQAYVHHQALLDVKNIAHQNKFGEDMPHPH
Description: Inhibition of HDAC6 (unknown origin) measured by fluorescence based assay

[7] = target: T2, Histone deacetylase 8 (Homo sapiens, UniProt Q9BY41)
T2 sequence (Q9BY41 whole entry): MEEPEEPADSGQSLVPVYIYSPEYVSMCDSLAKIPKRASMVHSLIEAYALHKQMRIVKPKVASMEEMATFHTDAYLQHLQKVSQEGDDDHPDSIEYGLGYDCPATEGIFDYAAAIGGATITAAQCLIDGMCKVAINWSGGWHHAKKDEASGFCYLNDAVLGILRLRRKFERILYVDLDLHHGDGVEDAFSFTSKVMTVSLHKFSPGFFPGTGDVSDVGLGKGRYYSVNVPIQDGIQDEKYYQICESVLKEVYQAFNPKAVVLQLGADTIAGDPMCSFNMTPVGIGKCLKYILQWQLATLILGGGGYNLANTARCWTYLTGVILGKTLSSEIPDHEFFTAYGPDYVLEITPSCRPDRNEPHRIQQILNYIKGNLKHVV
Description: Inhibition of HDAC8 (unknown origin) measured by fluorescence based assay

IC50 [1]: 800 nM
half-life [3]: 27.6 min
clearance [4]: 53 mL/min/kg
Vd [5]: 2.09 L/kg
IC50 [6]: 13 nM
IC50 [7]: > 5 µM
Compound: N#Cc1c(N)nc(N)nc1N1CC2(CC2)C[C@H]1c1nc2cccc(Cl)c2c(=O)n1Cc1ccc(C(=O)NO)s1
Activity [2]: Dde
